From patent US9029337B2, “Modulation of factor 7 expression” (Isis Pharmaceuticals, Inc., priority 2007, dated 2015)
Strand notation (5' to 3'): a small letter for the sugar, then the base; units joined by * are phosphorothioate-linked, units joined directly phosphodiester-linked; [ ] holds rarer units or linkages, { } end groups; capitals alone tell only the bases. e = 2'-O-(2-methoxyethyl) (MOE); [5mC] = 5-methylcytosine; d = 2'-deoxy (DNA)

Test system: human Factor 7 mRNA
Assay: Antisense inhibition of human Factor 7 mRNA in HepB3 cells, 50 nM antisense oligonucleotide, lipofectin
Assay type: cell-based
Conditions: for % Inhibition: Table 6, 50 nM, lipofectin, approximately 24 hours
Outline: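 4,000 cells/well; ~24 h exposure; RNA isolated; probe set RTS 2927; normalised to RIBOGREEN® total RNA; % inhibition vs untreated.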

[1] = oligonucleotides targeted to nucleobases 11830 to 11869 of SEQ ID NO: 1 (Table 9)
[2] = oligonucleotides targeted to nucleobases 13760 to 13789 of SEQ ID NO: 1 (Table 10)

422101 (antisense eT*eG*eA*eG*eG*dA*dG*dA*d[5mC]*dA*dA*dT*dG*dG*dT*e[5mC]*eA*eG*eG*eG) [compound 422101]
% Inhibition (human Factor 7 mRNA levels) [1]: 42%

422102 (antisense e[5mC]*eT*eG*eA*eG*dG*dA*dG*dA*d[5mC]*dA*dA*dT*dG*dG*eT*e[5mC]*eA*eG*eG) [compound 422102]
% Inhibition (human Factor 7 mRNA levels) [1]: 62%

422103 (antisense eG*e[5mC]*eT*eG*eA*dG*dG*dA*dG*dA*d[5mC]*dA*dA*dT*dG*eG*eT*e[5mC]*eA*eG) [compound 422103]
% Inhibition (human Factor 7 mRNA levels) [1]: 38%

422104 (antisense eG*eG*e[5mC]*eT*eG*dA*dG*dG*dA*dG*dA*d[5mC]*dA*dA*dT*eG*eG*eT*e[5mC]*eA) [compound 422104]
% Inhibition (human Factor 7 mRNA levels) [1]: 59%

422105 (antisense eT*eG*eG*e[5mC]*eT*dG*dA*dG*dG*dA*dG*dA*d[5mC]*dA*dA*eT*eG*eG*eT*e[5mC]) [compound 422105]
% Inhibition (human Factor 7 mRNA levels) [1]: 60%

422106 (antisense e[5mC]*eT*eG*eG*e[5mC]*dT*dG*dA*dG*dG*dA*dG*dA*d[5mC]*dA*eA*eT*eG*eG*eT) [compound 422106]
% Inhibition (human Factor 7 mRNA levels) [1]: 32%

422107 (antisense eG*e[5mC]*eT*eG*eG*d[5mC]*dT*dG*dA*dG*dG*dA*dG*dA*d[5mC]*eA*eA*eT*eG*eG) [compound 422107]
% Inhibition (human Factor 7 mRNA levels) [1]: 36%

422108 (antisense e[5mC]*e[5mC]*eG*e[5mC]*e[5mC]*dG*dG*d[5mC]*dT*d[5mC]*dT*dG*d[5mC]*dT*d[5mC]*eA*eT*e[5mC]*e[5mC]*e[5mC]) [compound 422108]
% Inhibition (human Factor 7 mRNA levels) [2]: 69%

422109 (antisense e[5mC]*e[5mC]*e[5mC]*eG*e[5mC]*d[5mC]*dG*dG*d[5mC]*dT*d[5mC]*dT*dG*d[5mC]*dT*e[5mC]*eA*eT*e[5mC]*e[5mC]) [compound 422109]
% Inhibition (human Factor 7 mRNA levels) [2]: 68%

422110 (antisense eA*e[5mC]*e[5mC]*e[5mC]*eG*d[5mC]*d[5mC]*dG*dG*d[5mC]*dT*d[5mC]*dT*dG*d[5mC]*eT*e[5mC]*eA*eT*e[5mC]) [compound 422110]
% Inhibition (human Factor 7 mRNA levels) [2]: 53%

422111 (antisense e[5mC]*eA*e[5mC]*e[5mC]*e[5mC]*dG*d[5mC]*d[5mC]*dG*dG*d[5mC]*dT*d[5mC]*dT*dG*e[5mC]*eT*e[5mC]*eA*eT) [compound 422111]
% Inhibition (human Factor 7 mRNA levels) [2]: 37%

422112 (antisense e[5mC]*e[5mC]*eA*e[5mC]*e[5mC]*d[5mC]*dG*d[5mC]*d[5mC]*dG*dG*d[5mC]*dT*d[5mC]*dT*eG*e[5mC]*eT*e[5mC]*eA) [compound 422112]
% Inhibition (human Factor 7 mRNA levels) [2]: 61%

422113 (antisense eG*e[5mC]*e[5mC]*eA*e[5mC]*d[5mC]*d[5mC]*dG*d[5mC]*d[5mC]*dG*dG*d[5mC]*dT*d[5mC]*eT*eG*e[5mC]*eT*e[5mC]) [compound 422113]
% Inhibition (human Factor 7 mRNA levels) [2]: 68%

422114 (antisense e[5mC]*eG*e[5mC]*e[5mC]*eA*d[5mC]*d[5mC]*d[5mC]*dG*d[5mC]*d[5mC]*dG*dG*d[5mC]*dT*e[5mC]*eT*eG*e[5mC]*eT) [compound 422114]
% Inhibition (human Factor 7 mRNA levels) [2]: 50%

422115 (antisense eG*e[5mC]*eG*e[5mC]*e[5mC]*dA*d[5mC]*d[5mC]*d[5mC]*dG*d[5mC]*d[5mC]*dG*dG*d[5mC]*eT*e[5mC]*eT*eG*e[5mC]) [compound 422115]
% Inhibition (human Factor 7 mRNA levels) [2]: 66%

422116 (antisense eT*eG*e[5mC]*eG*e[5mC]*d[5mC]*dA*d[5mC]*d[5mC]*d[5mC]*dG*d[5mC]*d[5mC]*dG*dG*e[5mC]*eT*e[5mC]*eT*eG) [compound 422116]
% Inhibition (human Factor 7 mRNA levels) [2]: 52%

422117 (antisense eG*eG*eA*eA*eG*dA*dA*dG*dG*dG*dA*d[5mC]*dG*dG*dA*eA*eG*eG*eT*eG) [compound 422117]
% Inhibition: 1%

422118 (antisense e[5mC]*eG*eG*eA*eA*dG*dA*dA*dG*dG*dG*dA*d[5mC]*dG*dG*eA*eA*eG*eG*eT) [compound 422118]
% Inhibition: 15%
